Assay results taken from article PMC2914821 (Biochemistry, 2010).
Read-outs that look alike come from different tables or passages of the source.

Columns and labels:
ferrous Ns H-NOX = test: CO and NO binding kinetics to ferrous Ns H-NOX; parameters: species or system Nostoc sp; settings: for kOFF: 6c-CO complex / 1st 6c-NO complex, 20 – 25 °C
sGC = settings: cited from earlier work; for Kd / kOFF: sGC
ferric sGC = settings: cited from earlier work
[1] = ferrous, 37 °C; cited from earlier work

For `[C-]#[O+]` [CO, carbon monoxide], the “rate of reaction with CO, Ns H-NOX relative to sGC” value (ferrous Ns H-NOX) was 100 fold, the “second-order rate constant of CO binding” value (ferrous Ns H-NOX; 5 µM ferrous Ns H-NOX, [CO] 25 to 166 µM, 24 °C, two separately purified samples) was 2 – 3 × 10^6 M^−1s^−1 and the “Kd for CO binding, ratio koff/kon” value (ferrous Ns H-NOX; 3.6 s^-1/3.0 µM^−1s^−1) was 1.2 µM. The “CO association rate constant (free linear fit)” value (ferrous Ns H-NOX; 24 °C) was 2.9e+06 M⁻¹ s⁻¹, the “CO dissociation rate constant (koff) from y-axis intercept of kobs versus [CO]” value (ferrous Ns H-NOX; 24 °C) was 23 s⁻¹ and the kOFF (ferrous Ns H-NOX; Ns H-NOX) was 3.6 s⁻¹. The Kd (sGC; 4 °C) was 260 µM and the kOFF (sGC; 4 °C) was 10.7 s⁻¹.

For `[N-]=[N+]=[N-]` [N3^−, azide], the Kd (ferric sGC) is given as 26000 µM and the “observed rate constant of azide binding” value (ferric Ns H-NOX) is given as ~ 0.015 s^−1.

For `O=O` [O2, oxygen], the “O2 binding (comment)” value (sGC) is listed as “No O2 binding at 1 atm, 10 °C”.

For nitric oxide [NO], the “fraction of 5c NO-heme in final NO-heme complex” value (ferrous Ns H-NOX; EPR, large excess (1 atm) of NO gas, wild type Ns H-NOX) was ~ 40%, the “overall equilibrium affinity for NO relative to CO” value (ferrous Ns H-NOX; Ns H-NOX) was 4 orders of magnitude and the kOFF (ferrous Ns H-NOX; Ns H-NOX) was 0.05 s⁻¹. The “first order rate constant of 6c-NO to 5c-NO conversion, first phase” value (ferrous Ns H-NOX; excess NO, independent of [NO]) was ~ 7 s^−1, the “first order rate constant of 6c-NO to 5c-NO conversion, second phase” value (ferrous Ns H-NOX; excess NO, independent of [NO]) was 0.3 s⁻¹ and the “NO association rate constant for first 6c-NO complex” value (ferrous Ns H-NOX; flow-flash, 436 and 418 nm, 24 °C) was 200 – 400 µM^−1s^−1 and ≈ 300 µM^−1s^−1. For the same molecule, the “NO dissociation first order rate constant, minor slow phase” value (ferrous Ns H-NOX; initial 6c-NO complex mixed with 0.5 mM CO and 25 mM dithionite) was 0.007 s⁻¹, the Kd (ferrous Ns H-NOX; read-out: apparent Kd for first NO binding step) was about 0.00017 µM and the kOFF (sGC; 5c (off), 10 °C) was 0.0006 s⁻¹. The Kd (sGC; 10 °C, calculated as kOFF/kON) was 4.2e-06 µM.

B1: β1(1–194): truncated sGC β1 heme domain corresponding to the H-NOX domain (protein, UniProt Q02153 1-194, looked up, fragment)
chain: MYGFVNHALELLVIRNYGPEVWEDIKKEAQLDEEGQFLVRIIYDDSKTYDLVAAASKVLNLNAGEILQMFGKMFFVFCQESGYDTILRVLGSNVREFLQNLDALHDHLATIYPGMRAPSFRCTDAEKGKGLILHYYSEREGLQDIVIGIIKTVAQQIHGTEIDMKVIQQRNEECDHTQFLIEEKESKEEDFYED
modifications: H-NOX domain
In the case of B1, the rate of autooxidation [1] is listed as 4.3 h⁻¹.

B2: β2(1–217): truncated sGC β2 heme domain (protein, UniProt O75343 1-217, looked up, fragment)
chain: MSGYDRMLRTLGGNLMEFIENLDALHSYLALSYQEMNAPSFRVERGADGKMFLHYYSDRSGLCHIVPGIIEAVAKDFFDIDVIMDILDMNEEVERTGKKEHVVFLIVQKAHRKMRKTKPKRLQDSQGMERDQEALQAAFLKMKEKYLNVSACPVKKSHWDVVRSIVMFGKGHLMNTFEPIYPERLWIEEKTFCNAFPFHIVFDESLQVKQARVNIQK
modifications: heme domain
In the case of B2, the rate of autooxidation [1] is given as 0.18 h⁻¹.
